Tests used:
[1] = system: memory impairment caused by NMDA receptor blocker MK-801; test: Passive avoidance test in MK-801 dementia model mice; format: in vivo; settings: MK-801 alone, 0.2 mg/kg body weight subcutaneous, DDY mice
Description: In this example, passive avoidance tests using dementia model mice having MK-801 administered thereto were carried out for estimation of effects of the ceramide-containing matter on memory impairments.
More specifically, 7 week old male DDY mice (available from Japan SLC, Inc.) were pre-fed for experimentation. The ceramide-containing matter suspended in an aqueous solution of 0.5% carboxymethyl cellulose sodium (CMC) was orally administrated to the mice once per day in a dose of 100 mg/kg body weight or 500 mg/kg body weight for six days. At the 7th and 8th days from the onset of administration, training and retention trials of passive avoidance testing were carried out. Ninety (90) minutes before the training trial of passive avoidance testing, 100 mg/kg body weight or 500 mg/kg body weight of the ceramide-containing matter or an aqueous solution of solvent 0.5% CMC were orally administrated to the mice, followed by subcutaneous administration of non-competitive NMDA receptor blocker MK-801 (0.2 mg/kg body weight) or a physiological saline solution 60-minute later. Thirty (30) minutes after that, training trial of passive avoidance testing was carried out, and after the elapse of 24 hours, retention testing was carried out. […]

[2] = system: MEK/ERK signaling system in PC-12 cells; test: MEK-ERK signaling system in neural model cells with MEK inhibitor (western blot); format: cell-based, rat; settings: UO126 10 μM added 30 minutes before 30 μg/mL ceramide-containing matter
Description: An inhibitor of MEK that was the upstream kinase of extracellular signal-regulated kinase (ERK1/2) was used to make an estimation of the effect of the ceramide-containing matter on the MEK/ERK signaling system in PC-12 cells. The PC-12 cells were cultured in a D-MEM culture medium containing 5% bovine serum and 5% horse serum. The MEK inhibitor UO126 was dissolved in dimethyl-sulfoxide (DMSO), and the resulting solution was added to the cells in such an amount as to give 10 μM, and 30 minutes after that, the ceramide-containing matter dissolved in DMSO was added to the cells in such an amount as to give 30 μg/mL for 10-minute culture. After culture, the cells were collected for estimation of the phosphorylation ERK1/2 (phospho ERK1/2) level important for memory formation by means of the western blot method using anti-phospho ERK1/2 antibody and/or anti-total ERK1/2 antibody. Note here that a sample treated with nobiletin (30 μM) was used as a positive control.

Row | SMILES | reaction latency in retention trial versus solvent control group [1] | rise of ERK1/2 phosphorylation level caused by the ceramide-containing matter, after MEK inhibitor pretreatment [2]
1 | C[C@]12N[C@H](Cc3ccccc31)c1ccccc12 [MK-801] | significantly lower in the reaction latency | 
2 | N#CC(=C(/N)Sc1ccccc1N)/C(C#N)=C(/N)Sc1ccccc1N [UO126] |  | kept low

From US20230226133A1, “METHOD FOR EXTRACTING CERAMIDE-CONTAINING MATERIAL OR CERAMIDE FROM WHOLE APPLES AND/OR APPLE JUICE EXTRACTION RESIDUE, AND COMPOSITION INCLUDING SAID CERAMIDE” (priority 2020, published 2023)
